{"source": "patent US5369096A", "about": "“Glycolipid derivatives” (The Nisshin Oil Mills, Ltd., priority 1992, dated 1994)", "type_in_all_cases": "cell-based", "key": {"[1]": {"test_system": "HL-60 cancer cells adhering to vascular endothelial cells of the normal human umbilical cord", "test": "inhibition of adhesion of HL-60 cancer cells to rhIL1β-stimulated vascular endothelial cells, oily emulsion", "conditions": "20 μg/ml equivalent; for Amount of HL-60 cancer cells adhered (fluorescence intensity): rhIL1β 200 U/ml, 485 nm/535 nm", "experimental": "(§1) A mixed solution of 6 mg of egg yolk lecithin (manufactured by Nacalaitesque Inc.), 30 μl of soybean oil J. P. (manufactured by Yoshida Seiyaku), 470 μl of distilled water for injection (manufacturedby Otsuka Seiyaku) and 125 μg of a compound of the invention was ultrasonicated (an output of 90 watts) for 10 min. to prepare an oily emulsion. The oily emulsion was further passed through a polycarbonate membrane filter having 0.2 μm average pore diameter (manufactured by Millipore) to provide an average particle size of 0.2 μm.\nVascular endothelial cells of the normal human umbilical cord grown to confluence were stimulated in 24-well plates with 200 U/ml of rhIL1β at 37° C. for 4 hours. After removal of the supernatant by suction, oily emulsions each prepared from a compound of the invention in an amount of 20 μg/ml equivalent were added except for the rhIL1β-untreated group (sample 1) and the treated groups (samples 2 and 3). The mixtures were then allowed to react at room temperature for 30 min. Subsequently, promyelocytic leukemia cell line HL-60 with 2',7'-bis(carboxyethyl)-5,6-carboxyfluorescene acetoxymethyl ester fluorescent dye enclosed was added at a level of 1×10^6 cells per well followed by centrifugal operation at 100 rpm for 20 min. Each well was washed three times followed by addition of 0.5 ml of 0.5% Triton X-100 and stirring. The contents were divided into 100 μl portions in 96-well plates and measurement was made on a Baxter fluorometer at 485 nm/535 nm.\n4: rhIL1β-treated group+2→3 sialyl Lewis X (natural type)-containing oily emulsion dispersion-treated group\n5: rhlL1β-treated group+compound 5E-containing oily emulsion dispersion-treated group (OEG)\n(§2) 6: rhIL1β-treated group+compound 5A-containing oily emulsion dispersion-treated group (2EG)\n(§3) 7: rhIL1β-treated group+compound 5B-containing oily emulsion dispersion-treated group (3EG)\n(§4) 8: rhIL1β-treated group+compound 5C-containing oily emulsion dispersion-treated group (4EG)\n(§5) 9: rhIL1β-treated group+compound 5D-containing oily emulsion dispersion-treated group (5EG)\n(§6) % inhibition of adhesion=100-[(fluorescence intensity for rhIL1β-treated group+compound-free or a compound-containing oily emulsion dispersion-treated group)-(fluorescence intensity for rhIL1β-untreated group)/(fluorescence intensity for rhIL1β-treated group-fluorescence intensity for rhIL1β-untreatedgroup)]×100"}, "[2]": {"test_system": "Colo 201 cancer cells adhering to vascular endothelial cells of the normal human umbilical cord", "test": "inhibition of adhesion of Colo 201 cancer cells to rhIL1β-stimulated vascular endothelial cells, liposome dispersion", "conditions": "11.8 μM equivalent; for Amount of Colo 201 cells adhered (fluorescence intensity): rhIL1β 200 U/ml, 485 nm", "experimental": "A solution of 200 μg of phosphatidylcholine, 100 μg of cholesterol, 7.5 μg of dicetyl phosphate and 50 μg of a compound of the invention in a mixture of chloroform/methanol=2/1 (ca. 1 ml) was evaporated under reduced pressure to dryness followed by addition of 0.25 ml of a phosphate-buffered saline solution. The mixture was ultrasonicated (an output of 90 watts) for 5 min. and stirred (a vortex mixer) for 5 min. to form a liposome dispersion.\nas §6, with “Inhibition” for “inhibition”, “liposome” for “oily emulsion”\nVascular endothelial cells of the normal human umbilical cord grown to confluence were stimulated in 24-well plates with 200 U/ml of rhIL1β at 37° C. for 4 hours. After removal of the supernatant by suction liposome dispersions each prepared from 2→3 sialyl Le^x or a compound of the invention in an amount of 11.8 μM equivalent were added except for the rhIL1β-untreated and treated groups. The mixtures were then allowed to react at room temperature for 30 min. Subsequently, colon carcinoma cell line Colo 201 with 2',7'-bis-(carboxyethyl)-5,6-carboxyfluorescene acetoxymethyl ester fluorescent dye enclosed was added at a level of 1×10^6 cells per well followed by centrifugal operation at 100 rpm for 20 min. Each well was washed three times followed by addition of 0.5 ml of 0.5% Triton X-100 and stirring. The contents were divided into 100 μl portions in 96-well plates and measurement was made on a Baxter fluorometer at 485 nm.\n4: rhIL1β-treated group+2→3 sialyl Le^x -containing liposome dispersion-treated group\n5: rhIL1β-treated group+compound 5E-containing liposome dispersion-treated group (OEG)*\n6: rhIL1β-treated group+compound 5A-containing liposome dispersion-treated group (2EG)\n7: rhIL1β-treated group+compound 5B-containing liposome dispersion-treated group (3EG)\n8: rhIL1β-treated group+compound 5C-containing liposome dispersion-treated group (4EG)\n9: rhIL1β-treated group+compound 5D-containing liposome dispersion-treated group (5EG)\n* OEG represents a control compound containing no CH2 CH2 O unit. The same shall apply hereinafter.\nAmount adhered and % inhibition of adhesion of Colo 201 cancer cells as measured from fluorescence intensity are shown in Table 2 below."}, "[3]": {"test_system": "human normal lymphocytes adhering to vascular endothelial cells of the normal human umbilical cord", "test": "inhibition of adhesion of human normal lymphocytes to rhIL1β-stimulated vascular endothelial cells, oily emulsion", "conditions": "20 μg/ml equivalent; for Amount adhered (fluorescence intensity): rhIL1β 200 U/ml, 485 nm/535 nm", "experimental": "as §1\nVascular endothelial cells of the normal human umbilical cord grown to confluence were stimulated in 24-well plates with 200 U/ml of rhIL1ββat 37° C. for 4 hours. After removal of the supernatant by suction, oily emulsions each prepared from a compound of the invention in an amount of 20 μg/ml equivalent were added except for the rhIL1β-untreated (Sample 1) and treated groups (Samples 2 and 3). The mixtures were then allowed to react at room temperature for 30 min. Subsequently, human normal lymphocytes with 2',7'-bis(carboxyethyl)-5,6-carboxyfluorescence acetoxymethyl ester fluorescent dye enclosed was added at a level of 2×10^6 cells per well followed by centrifugal operation at 100 rpm for 20 min. Each well was washed three times followed by addition of 0.5 ml of 0.5% Triton X-100 and stirring. The contents were divided into 100 μl portions in 96-well plates and measurement was made on a Baxter fluorometer at 485 nm/535 nm.\n4: rhIL1β-treated group+2→3 sialyl Lewis X-containing oily emulsion dispersion-treated group\n5: rhIL1β-treated group+compound 5E-containing oily emulsion dispersion-treated group (OEG)\nas §2, §3, §4, §5\nAmount adhered and percent inhibition of adhesion of human normal lymphocytes as measured from fluorescence intensity are shown in Table 5 below."}}, "data": [{"smiles": "CCCCCCCCCCCCC/C=C/[C@@H](O)[C@H](CO[C@@H]1O[C@H](CO)[C@@H](O[C@@H]2O[C@H](CO)[C@H](O)[C@H](O[C@@H]3O[C@H](CO)[C@@H](O[C@@H]4O[C@H](CO)[C@H](O)[C@H](O[C@]5(C(=O)O)C[C@H](O)[C@@H](NC(C)=O)[C@H]([C@H](O)[C@H](O)CO)O5)[C@H]4O)[C@H](O[C@@H]4O[C@@H](C)[C@@H](O)[C@@H](O)[C@@H]4O)[C@H]3NC(C)=O)[C@H]2O)[C@H](O)[C@H]1O)NC(=O)CCCCCCCCCCCCCCCCC", "note": "[2→3 sialyl Le^x, reference compound]", "values": [{"measurement": "Amount of HL-60 cancer cells adhered (fluorescence intensity)", "setting": "[1]", "value": 16869}, {"measurement": "Amount of Colo 201 cells adhered (fluorescence intensity)", "setting": "[2]", "value": 448512}, {"measurement": "Amount adhered (fluorescence intensity)", "setting": "[3]", "value": 9320}]}, {"smiles": "CCCCCCCCCCCCCCC(CCCCCCCCCCCCCC)C(=O)Nc1ccc(CO[C@@H]2O[C@H](CO)[C@@H](O[C@@H]3O[C@H](CO)[C@H](O)[C@H](O[C@]4(C(=O)O)C[C@H](O)[C@@H](NC(C)=O)[C@H]([C@H](O)[C@H](O)CO)O4)[C@H]3O)[C@H](O[C@@H]3O[C@@H](C)[C@@H](O)[C@@H](O)[C@@H]3O)[C@H]2O)cc1", "note": "[Compound 5E, para-(2-tetradecylhexadecanoyl)-aminobenzyl-O-(5-acetamido-3,5-dideoxy-D-glycero-α-D-galacto-2-nonulopyranosylonic acid)-(2→3)-O-β-galactopyranosyl-(1→4)-[O-α-L-fucopyranosyl-(1→3)-β-D-glucopyranoside], reference compound]", "values": [{"measurement": "Amount of HL-60 cancer cells adhered (fluorescence intensity)", "setting": "[1]", "value": 24307}, {"measurement": "% Inhibition of adhesion", "setting": "[1]; HL-60 cells", "value": 35.6, "unit": "%"}, {"measurement": "Amount of Colo 201 cells adhered (fluorescence intensity)", "setting": "[2]", "value": 595253}, {"measurement": "% Inhibition of adhesion", "setting": "[2]; Colo 201 cells", "value": 9.68, "unit": "%"}, {"measurement": "% Inhibition of adhesion", "setting": "[3]", "value": 46.6, "unit": "%"}, {"measurement": "Amount adhered (fluorescence intensity)", "setting": "[3]", "value": 14781}]}]}
